Consider one sequence from paper PMC3898417, “A peptide derived from TIMP-3 inhibits multiple angiogenic growth factor receptors and tumour growth and inflammatory arthritis in mice” (Angiogenesis, 2013).

Bridges are numbered along the chain shown (N, C = ends). Where no end group is shown, it is not given here.

The subject of assay [1] is collagen-induced arthritis. Nature of the assay: Collagen-induced-arthritis mouse (CIA) model. It counts as in vivo, DBA-1 mice. To be noted: 2.5 mg/kg i.v. every 2 days.
Assay [2] concerns primary human synovial cells (SC). As to the kind of experiment: In vitro synovial cell invasion assay (GFR-Matrigel). It counts as cell-based. Particulars: rheumatoid arthritis synovial cells, peptide 1 h, 100 ng/ml PDGF-BB 22 h; n = 3. As for the experimental part: Synovial cell invasion was determined using a GFR-Matrigel™ invasion assay kit (BD Biosciences, USA). Serum-starved SC were treated with peptide for 1 h, followed by stimulation with 100 ng/ml PDGF-BB at 37 °C for 22 h. After incubation, non-invading cells on the upper side of the chamber were removed and the invaded cells on the lower side of the membrane were fixed with methanol and stained with Hema Gurr® rapid staining solution (Merck Chemicals, Ltd.). Cells were counted using a light microscope at 160× magnification in 3 random fields per well of 3 separate wells.

A further assay relates to PI3K. As to the kind of experiment: Immunoblotting of VEGF165-induced PI3K phosphorylation. The class given is cell-based, human. Particulars: 1 μM, HuDMEC, western blot; n = 3. The procedure: Transfected HUVEC or HuDMEC pre-treated with 1 μM test peptides for 1 h, were stimulated with 0.5 nM of VEGF165 for 2, 5 or 10 min. Cells were lysed and phosphorylated proteins detected by western blotting using phospho-specific antibodies to either VEGFR-2, Erk1/2 or PI3K (New England BioLabs, UK). Band intensities were quantified using Bio-Rad Quantity One Analysis software and normalized using U, un-stimulated control, as 0 %; and VEGF165, positive control, as 100 % of protein phosphorylation.
(Immunoblotting shows a protein as a band on a membrane.)

The next assay has as its system HGFR. Nature of the assay: Phosphorylation RTK sandwich ELISA. To be noted: HuDMEC, peptide 1 h, 1.6 nM hepatocyte growth factor 5 min. The class given is cell-based, human. As for the experimental part: (§1) Serum-deprived HuDMEC were pre-treated with test peptides for 1 h and then stimulated with growth factors (0.5 nM VEGF165, 1.6 nM bFGF, 1 nM PDGF-BB, 1.6 nM hepatocyte growth factor, 100 ng/ml EGF or 100 ng/ml insulin-like growth factor I) for 5 min. Cells were then lysed and phosphorylated proteins detected using (a) a receptor tyrosine kinase array (Human Phospho-Receptor Tyrosine Kinase Array Kit, R&D Systems Ltd.) or (b) sandwich ELISA (Duo-sets, R&D Systems Ltd.) according to the manufacturer’s instructions.
For orientation: In an ELISA, binding on a coated surface is turned into a signal by an enzyme label.

A further assay concerns PDGFR-α. Nature of the assay: Phosphorylation RTK sandwich ELISA. Particulars: HuDMEC, peptide 1 h, ligand 5 min, n = 3. It counts as cell-based, human. As for the experimental part:
as §1

A further assay relates to VEGFR-3. Nature of the assay: Phosphorylation RTK sandwich ELISA. It counts as cell-based, human. Particulars: HuDMEC, peptide 1 h, ligand 5 min, n = 3. The procedure: as §1
The test system of a further assay is FGFR-1. Nature of the assay: Phosphorylation RTK sandwich ELISA. It counts as cell-based, human. Particulars: HuDMEC, peptide 1 h, ligand 5 min, n = 3. The procedure:
as §1

For assay [3], the system named is insulin-like growth factor 1 receptor. Nature of the assay: Phosphorylation RTK sandwich ELISA. To be noted: HuDMEC, peptide 1 h, 100 ng/ml insulin-like growth factor I 5 min. It counts as cell-based, human. The procedure: as §1
In a further assay the test system is VEGFR-1. As to the kind of experiment: Phosphorylation RTK sandwich ELISA. It counts as cell-based, human. To be noted: HuDMEC, peptide 1 h, ligand 5 min, n = 3. As for the experimental part: as §1
In another assay the test system is FGFR-4. Nature of the assay: Phosphorylation RTK sandwich ELISA. The class given is cell-based, human. Particulars: HuDMEC, peptide 1 h, ligand 5 min, n = 3. The procedure:
as §1

Consider “KIKSCYYLPCFVTSKN (disulfide 5-10 (inferred)) [p700]”, for which the CIA progression entry in assay [1] (7 doses, vehicle n = 8, p700 n = 10) is reported as “significantly inhibited”. Moreover, in assay [1] (p < 0.001 2-way ANOVA), the “clinical presentation of disease (arthritis score)” value is on record as “reduced”. Besides, the “hind paw inflammation (hind paw volume)” value in assay [1] (plethysmometry, p < 0.05 2-way ANOVA, AUC NS) is “reduced”. For the same sequence, the “inhibition of PDGF-BB induced synovial cell invasion” value in assay [2] is given as “approximately 40%”. In addition, the “inhibition of VEGF165-induced phosphorylation of PI3K” value in the assay on PI3K is listed as “approximately 50%”. In addition, the “inhibition of HGFR phosphorylation” value in the assay with HGFR is given as “no inhibition”. Also, in the assay on PDGFR-α, the “inhibition of PDGFR-α phosphorylation” value is listed as “significant inhibition”. Moreover, the “inhibition of VEGFR-3 phosphorylation” value in the assay on VEGFR-3 is “significant inhibition”. The “inhibition of FGFR-1 phosphorylation” value in the assay with FGFR-1 is on record as “significant inhibition”. Also, in assay [3], the “inhibition of insulin-like growth factor 1 receptor phosphorylation” value is “no inhibition”. Also, the “inhibition of VEGFR-1 phosphorylation” value in the assay on VEGFR-1 is reported as “significant inhibition”. In the assay on FGFR-4, the “inhibition of FGFR-4 phosphorylation” value was “significant inhibition”.
